Structures can show the parent of a compound that is named as a salt.
Row | Compound | melting point
1 | Cc1cc(CC(C)(C)NCC(O)c2cc(O)cc3c2OCC(=O)N3)ccc1F (centres unmarked) (as salt: hydrochloride) | 278 to 280 °C
2 | Cc1cc(F)ccc1CC(C)(C)NCC(O)c1cc(O)cc2c1OCC(=O)N2 (centres unmarked) (as salt: hydrochloride) | 278 to 280 °C
3 | CC(C)(Cc1ccc(F)cc1F)NCC(O)c1cc(O)cc2c1OCC(=O)N2 (centres unmarked) (as salt: hydrochloride) | 279 to 280 °C
4 | Cc1cc(C)cc(CC(C)(C)NCC(O)c2cc(O)cc3c2OCC(=O)N3)c1 (centres unmarked) (as salt: hydrochloride) | 235 to 238 °C
5 | CC(C)(Cc1ccc(OCCCC(=O)O)cc1)NCC(O)c1cc(O)cc2c1OCC(=O)N2 (centres unmarked) (as salt: salt) [Example 16, Acid addition salt of 4-(4-{2-[2-hydroxy-2-(6-hydroxy-3-oxo-3,4-dihydro-2H-benzo[1,4]oxazin-8-yl)-ethylamino]-2-methyl-propyl}-phenoxy)-butyric acid] | 201 to 204 °C
